A short description of the series: activity coefficient (dimensionless); of the first substance listed, at infinite dilution; xn = mol fraction of the nth substance listed. The conditions noted are these: 101.33 kPa, Liquid, Chromatography, x1 = 0.

Structures are written as SMILES. Numbers after ± are expanded uncertainties.

Regarding `Cc1ccccc1C` [1,2-dimethylbenzene] + CCCCn1cc[n+](C)c1.[O-][Cl+3]([O-])([O-])[O-], the activity coefficient (323.15 K) turned out to be 4.09 ± 0.43, the activity coefficient (333.15 K) is 4.16 ± 0.44, the activity coefficient (343.15 K) came to 4.27 ± 0.45 and the activity coefficient (353.15 K) was 4.37 ± 0.46.

On to `Cc1cccc(C)c1` [1,3-dimethylbenzene] + CCCCn1cc[n+](C)c1.[O-][Cl+3]([O-])([O-])[O-], for which the activity coefficient stood at 4.99 ± 0.52 (323.15 K), 5.08 ± 0.53 (333.15 K), 5.28 ± 0.55 (343.15 K) and 5.36 ± 0.56 (353.15 K).

As for `Cc1ccc(C)cc1` [1,4-dimethylbenzene] + CCCCn1cc[n+](C)c1.[O-][Cl+3]([O-])([O-])[O-], the activity coefficient reads like this: (323.15 K) 4.82 ± 0.51; (333.15 K) 4.91 ± 0.52; (343.15 K) 5.13 ± 0.54; (353.15 K) 5.21 ± 0.55.

As to `C1COCCO1` [1,4-dioxane] + CCCCn1cc[n+](C)c1.[O-][Cl+3]([O-])([O-])[O-], the activity coefficient reads like this: (323.15 K) 1 ± 0.1; (333.15 K) 1.02 ± 0.1; (343.15 K) 1.1 ± 0.11; (353.15 K) 1.14 ± 0.12.

With `CC(C)CC(C)(C)C` [2,2,4-trimethylpentane] + CCCCn1cc[n+](C)c1.[O-][Cl+3]([O-])([O-])[O-], the activity coefficient runs as follows: (303.15 K) 100 ± 11; (313.15 K) 102 ± 11; (323.15 K) 107 ± 11; (333.15 K) 119 ± 12; (343.15 K) 122 ± 13; (353.15 K) 125 ± 13.

For `CC(C)CO` [2-methyl-1-propanol] + CCCCn1cc[n+](C)c1.[O-][Cl+3]([O-])([O-])[O-], the activity coefficient is, setting by setting: (323.15 K) 2.9 ± 0.3; (333.15 K) 2.67 ± 0.28; (343.15 K) 2.48 ± 0.26; (353.15 K) 2.32 ± 0.24.

Consider `CC(C)CCO` [3-methylbutan-1-ol] + CCCCn1cc[n+](C)c1.[O-][Cl+3]([O-])([O-])[O-], for which the activity coefficient was determined as 3.49 ± 0.37 (333.15 K), 3.21 ± 0.34 (343.15 K) and 2.97 ± 0.31 (353.15 K).

With `CC(C)=O` [acetone] + CCCCn1cc[n+](C)c1.[O-][Cl+3]([O-])([O-])[O-], the activity coefficient by setting is: (303.15 K) 0.84 ± 0.09; (313.15 K) 0.91 ± 0.09; (323.15 K) 0.94 ± 0.1; (333.15 K) 0.98 ± 0.1; (343.15 K) 1.05 ± 0.11; (353.15 K) 1.08 ± 0.11.

For the compound `CC#N` [acetonitrile] + CCCCn1cc[n+](C)c1.[O-][Cl+3]([O-])([O-])[O-], the activity coefficient is, setting by setting: (303.15 K) 0.61 ± 0.07; (313.15 K) 0.62 ± 0.07; (323.15 K) 0.63 ± 0.07; (333.15 K) 0.65 ± 0.07; (343.15 K) 0.67 ± 0.07; (353.15 K) 0.69 ± 0.07.

As to `c1ccccc1` [benzene] + CCCCn1cc[n+](C)c1.[O-][Cl+3]([O-])([O-])[O-], the activity coefficient (303.15 K) was 1.78 ± 0.19; the activity coefficient (313.15 K) was 1.82 ± 0.19; the activity coefficient (323.15 K) came to 1.97 ± 0.21; the activity coefficient (333.15 K) is 2 ± 0.21; the activity coefficient (343.15 K) was 2.08 ± 0.22; the activity coefficient (353.15 K) worked out at 2.17 ± 0.23.

Consider `CCCCO` [butan-1-ol] + CCCCn1cc[n+](C)c1.[O-][Cl+3]([O-])([O-])[O-], for which the activity coefficient reads like this: (333.15 K) 2.73 ± 0.29; (343.15 K) 2.49 ± 0.26; (353.15 K) 2.39 ± 0.25.

For the compound `CCC(C)O` (stereo not drawn) [butan-2-ol] + CCCCn1cc[n+](C)c1.[O-][Cl+3]([O-])([O-])[O-], the activity coefficient (313.15 K) came to 2.91 ± 0.31; the activity coefficient (323.15 K) is 2.66 ± 0.28; the activity coefficient (333.15 K) was determined as 2.61 ± 0.27; the activity coefficient (343.15 K) amounted to 2.47 ± 0.26; the activity coefficient (353.15 K) came to 2.37 ± 0.25.

Regarding `C1CCCCC1` [cyclohexane] + CCCCn1cc[n+](C)c1.[O-][Cl+3]([O-])([O-])[O-], the activity coefficient reads like this: (303.15 K) 34.5 ± 3.6; (313.15 K) 34.6 ± 3.6; (323.15 K) 35.2 ± 3.7; (333.15 K) 35.4 ± 3.7; (343.15 K) 36.2 ± 3.8; (353.15 K) 37.5 ± 4.

Regarding `C1=CCCCC1` [cyclohexene] + CCCCn1cc[n+](C)c1.[O-][Cl+3]([O-])([O-])[O-], the activity coefficient reads like this: (303.15 K) 15.1 ± 1.6; (313.15 K) 14.8 ± 1.6; (323.15 K) 14.7 ± 1.6; (333.15 K) 14.6 ± 1.5; (343.15 K) 14.4 ± 1.5; (353.15 K) 14.2 ± 1.5.

`CCCCCCCCCC` [decane] + CCCCn1cc[n+](C)c1.[O-][Cl+3]([O-])([O-])[O-]: the activity coefficient (303.15 K) amounted to 226 ± 24; the activity coefficient (313.15 K) is 219 ± 23; the activity coefficient (323.15 K) is 217 ± 23; the activity coefficient (333.15 K) was 204 ± 22; the activity coefficient (343.15 K) turned out to be 200 ± 21; the activity coefficient (353.15 K) turned out to be 192 ± 20.

Take `ClCCl` [dichloromethane] + CCCCn1cc[n+](C)c1.[O-][Cl+3]([O-])([O-])[O-]: the activity coefficient is 0.84 ± 0.09 (303.15 K); 0.91 ± 0.09 (313.15 K); 0.96 ± 0.1 (323.15 K); 1.01 ± 0.1 (333.15 K); 1.1 ± 0.11 (343.15 K); 1.13 ± 0.12 (353.15 K).

As to `CCO` [ethanol] + CCCCn1cc[n+](C)c1.[O-][Cl+3]([O-])([O-])[O-], the activity coefficient runs as follows: (303.15 K) 1.67 ± 0.17; (313.15 K) 1.59 ± 0.17; (323.15 K) 1.59 ± 0.17; (333.15 K) 1.5 ± 0.16; (343.15 K) 1.45 ± 0.15; (353.15 K) 1.44 ± 0.15.

`CCOC(C)=O` [ethyl acetate] + CCCCn1cc[n+](C)c1.[O-][Cl+3]([O-])([O-])[O-]: the activity coefficient reads like this: (303.15 K) 2.22 ± 0.23; (313.15 K) 2.31 ± 0.24; (323.15 K) 2.46 ± 0.26; (333.15 K) 2.54 ± 0.27; (343.15 K) 2.69 ± 0.28; (353.15 K) 2.78 ± 0.29.

As for `CCc1ccccc1` [ethylbenzene] + CCCCn1cc[n+](C)c1.[O-][Cl+3]([O-])([O-])[O-], the activity coefficient worked out at 5.05 ± 0.53 (323.15 K), 5.11 ± 0.54 (333.15 K), 5.29 ± 0.56 (343.15 K) and 5.35 ± 0.56 (353.15 K).

As to `CCCCCCC` [heptane] + CCCCn1cc[n+](C)c1.[O-][Cl+3]([O-])([O-])[O-], the activity coefficient reads like this: (303.15 K) 85.9 ± 9.1; (313.15 K) 91.6 ± 9.7; (323.15 K) 99.1 ± 10; (333.15 K) 108 ± 11; (343.15 K) 115 ± 12; (353.15 K) 121 ± 13.

Consider `CCCCCC` [hexane] + CCCCn1cc[n+](C)c1.[O-][Cl+3]([O-])([O-])[O-], for which the activity coefficient (303.15 K) was 81.7 ± 8.6; the activity coefficient (313.15 K) worked out at 89.2 ± 9.4; the activity coefficient (323.15 K) was 98 ± 10; the activity coefficient (333.15 K) worked out at 107 ± 11; the activity coefficient (343.15 K) worked out at 112 ± 12; the activity coefficient (353.15 K) is 118 ± 12.

Take `CO` [methanol] + CCCCn1cc[n+](C)c1.[O-][Cl+3]([O-])([O-])[O-]: the activity coefficient by setting is: (303.15 K) 1.07 ± 0.11; (313.15 K) 1.06 ± 0.11; (323.15 K) 1.05 ± 0.11; (333.15 K) 1.02 ± 0.1; (343.15 K) 1.01 ± 0.1; (353.15 K) 1 ± 0.1.

The record behind these values is the NIST ThermoML archive (doi:10.1016/j.jct.2017.07.012).
